These results are taken from patent US20180055816A1, “PYRANONAPHTHOQUINONE COMPOUNDS AND METHODS OF USE THEREOF” (University of Kentucky Research Foundation, priority 2016, published 2018).

Assay [1] relates to intracellular reactive oxygen species (ROS). Kind of assay: Intracellular ROS production, CellROX Deep Red flow cytometry, HCT116 cells. As to conditions: HCT116, 2 μM, 1 h. Format: cell-based, human. On the procedure:
(§1) Compounds that pass this single dose filter are then tested in a CRC (HCT116) in vitro cytotoxicity assay and, in parallel, an in vitro assay to assess propensity for intracellular reactive oxygen species (ROS) production using the redox sensitive probe CeIIROX® Deep Red reagent (Invitrogen) by flow cytometry analysis (47).
(§2) The ROS production was determined using the CellROX Deep Red Flow Cytometry Assay Kit according to the manufacturer's protocol (Life Technologies). Briefly, cells were treated with 2 μM of the indicated compounds or DMSO as control for 1 h. After treatment, cells were incubated with 0.5 μM of CellROX Deep Red reagent for 1 h at 37° C., washed twice with PBS and immediately analyzed by a FACScan flow cytometer. For the measurement of cellular H2O2 level, cells were treated with 2 μM of the indicated compounds for 5 h.
On the technique in general: A flow cytometer gives signals particle by particle.

Another assay concerns H2O2. Kind of assay: Cellular H2O2 level in HCT116 cells. As to conditions: HCT116, 2 μM, 5 h. Format: cell-based, human. On the procedure: as §2
The subject of another assay is GSSG. Kind of assay: Quantification of glutathione disulfide (GSSG) in HCT116 cells. Format: cell-based, human. As to conditions: HCT116, 2 μM, 5 h. The method, then:
Cells were treated with 2 μM of the indicated compounds or DMSO as control for 5 h. Quantification of GSSG was essentially performed using the manufactures instructions for a microplate assay for GSH/GSSG (Oxford Biomedical Research, Inc, Oxford, Mich.). A total number of 0.5×10^6 cells were collected in 1.5 ml centrifuge tubes containing ice-cold buffer with the thiol scavenger to keep GSSG in its oxidized form. The cells were homogenized with a Teflon pestle and the cell suspension sonicated in icy water for 2-3 minutes. Ice-cold metaphosphoric acid was added to deproteinate the samples. The samples were centrifuged at 1000×g at 4° C. and the supernatants were used for determining the GSSG concentration according to the manufactures protocol using a microplate reader with 405 nm filter. The change in GSSG levels in the indicated compound-treated samples was expressed as fold change compared to control (DMSO) treated samples.

The next assay deals with cellular GSH. Description: Cellular glutathione (GSH) assay in HCT116 cells. To be noted: HCT116, 2 μM, 5 h. It is filed as cell-based, human. The method, then: Cells were treated with 2 μM of the indicated compounds or DMSO as control for 5 h. After treatment, a total number of 1×10^6 cells were lysed in 100 μl of ice-cold NP-40 lysis buffer for 10 min. The lysate was centrifuged for 10 min and the supernatant was used for glutathione assay using the ApoGSH glutathione detection kit according to the manufacturer's protocol (BioVision Research Products, Mountain view, CA). The total amount of GSH was measured using a fluorescence plate reader at Ex./Em.=380/460 nm.

In the next assay the test system is p70S6K phosphorylation. Kind of assay: p70S6K phosphorylation in HCT116 cells (Western blot). Format: cell-based, human. As to conditions: HCT116, 12 h; 2 μM FB or UCF76-A, 100 nM rapamycin, 0.5 μM AZD8055. On the procedure: HCT116 cells were treated with 1 μM MK2206 and 100 nM PD0325901 alone and in combination, 100 nM rapamycin, 0.5 μM AZD8055, 2 μM UCF76-A or 2 μM FB for 12 h followed by Western blot analysis for the indicated proteins.
(§3) Cells were lysed in NP-40 lysis buffer (50 mM Tris-HCl, pH 7.5, 150 mM NaCl, 1 mM EDTA, 1% NP-40, 10% glycerol, protease and phosphatase inhibitor cocktail). Western blot analysis were performed using equivalent total protein loadings as described previously. For immunoprecipitation, the cell lysates were incubated with the indicated antibody overnight followed by incubation with a 50% slurry of protein G sepharose beads for 3 h at 4° C. The beads were washed three times with the lysis buffer, and the immunoprecipitated protein complexes were resuspended in 2× Laemmli sample buffer followed by western blot analysis.

The target of a further assay is T1, Grx3 (Homo sapiens, UniProt O76003).
T1 construct: endogenous in cells; host or cells: HeLa cell lysates; HCT116 cell lysates
T1 sequence (O76003 1-335): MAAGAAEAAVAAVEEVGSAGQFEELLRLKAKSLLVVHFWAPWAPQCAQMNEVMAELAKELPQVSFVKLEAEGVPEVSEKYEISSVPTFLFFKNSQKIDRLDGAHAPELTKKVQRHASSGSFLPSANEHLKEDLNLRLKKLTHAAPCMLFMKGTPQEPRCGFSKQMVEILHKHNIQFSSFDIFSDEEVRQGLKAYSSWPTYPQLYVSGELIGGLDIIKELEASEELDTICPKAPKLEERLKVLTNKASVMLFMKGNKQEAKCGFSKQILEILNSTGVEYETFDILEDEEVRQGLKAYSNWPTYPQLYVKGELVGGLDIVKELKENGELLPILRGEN
Description: Affinity pull-down / binding to Grx3. To be noted: streptavidin pull-down, competition, Western blot. On the procedure: The precipitates were resolved by SDS-PAGE, and the gel was stained with Coomassie blue. (C) Sequences illustrating amino acids and peptides of Prx1 and Grx3 identified by mass spectrometry analysis. The unique bands as shown by d7-pull down in the experiment for FIG. 20B were excised and subjected to in-gel tryptic digestion and analysis by MS, wherein the identified amino acids and peptides are shown in red characters. (D) Western blot illustrating that HCT116 cell lysates were incubated with different concentrations of d5 or d7 in the absence or presence of a ten-fold excess of FB for 3 h, followed by pull-down with streptavidin-agarose and Western blot analysis for the indicated proteins.
FIGS. 21A-D show images illustrating that the active probe d7 binds to and co-localizes with Prx1 and Grx3. (A) and (B) The recombinant Prx1 (A) or Grx3 (B) was incubated with d7 for 2 hours, followed by streptavidin pull down and Western blot analysis for the indicated proteins. (C) and (D) HCT116 cells were incubated with 25 μM d5, 25 μM d7 or DMSO as control for 5 hours, followed by confocal sections of the cells staining for Prx1 (C) or Grx3 (D) (red), biotin (green) and DAPI (blue). Scale bars, 10 μm.
HeLa cell pellets were purchased from National Cell Culture Center (Minneapolis, Minn.) and lysed in 20 ml of the NP-40 lysis buffer. […]
Background: In western blotting, separated proteins are transferred to a membrane and probed.

The next assay deals with 4E-BP1 phosphorylation. Kind of assay: Inhibition of 4E-BP1 phosphorylation in HCT116 cells (Western blot). Format: cell-based, human. As to conditions: 12 h. The method, then:
as §1, §3

For `CCCC1OC2CC(=O)OC2C2=C1C(=O)c1c(O)cccc1C2=O` (stereo not shown) [FB, frenolicin B], the “cellular ROS” value in assay [1] is “marked increase”. Moreover, the “cellular H2O2” value in the assay with H2O2 is listed as “marked increase”. Further, in the assay with GSSG, the GSSG levels entry was “increase”. In addition, the GSH levels result in the assay with cellular GSH was “decrease”. Moreover, the “inhibition of p70S6K phosphorylation” value in the assay with p70S6K phosphorylation is recorded as “only weakly inhibited”. Moreover, the “binding to Grx3” value at Grx3 was “directly targets”. For the same compound, the “inhibition of 4E-BP1 phosphorylation” value in the assay on 4E-BP1 phosphorylation is listed as “effectively inhibited”.
